The structures appear in SMILES notation.

Test [1] concerns the target Cathepsin B (Homo sapiens, UniProt P07858). Briefly: Inhibition of human recombinant cathepsin B.
The target in test [2] is Procathepsin L (Homo sapiens, UniProt P07711). Briefly: Inhibition of human recombinant cathepsin L.
The target of test [3] is T1, Cathepsin K (Homo sapiens, UniProt P43235).
T1 sequence (P43235 whole entry): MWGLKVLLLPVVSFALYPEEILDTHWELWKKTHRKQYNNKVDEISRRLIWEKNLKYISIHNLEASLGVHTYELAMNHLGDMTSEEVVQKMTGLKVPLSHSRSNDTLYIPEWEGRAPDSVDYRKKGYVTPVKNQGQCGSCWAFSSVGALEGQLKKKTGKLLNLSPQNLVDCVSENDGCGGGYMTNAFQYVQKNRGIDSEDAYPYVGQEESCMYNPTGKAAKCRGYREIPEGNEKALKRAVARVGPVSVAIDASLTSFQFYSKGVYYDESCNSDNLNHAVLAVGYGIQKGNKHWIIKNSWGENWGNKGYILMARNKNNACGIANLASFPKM
Briefly: Inhibition of human recombinant cathepsin K.

Test [4] has as its system Macrophage. Briefly: Inhibition of RANKL-induced bone resorption of multinucleated osteoclasts from BALB/c mouse bone marrow-derived macrophages by pit formation assay. The class given is functional, cell-based.
Test [5] deals with RAW264.7. Briefly: Inhibition of RANKL-induced bone resorption of multinucleated osteoclasts from mouse RAW264.7 cells by pit formation assay. The class given is functional, cell-based.

Procathepsin L, sequence (P07711 whole entry): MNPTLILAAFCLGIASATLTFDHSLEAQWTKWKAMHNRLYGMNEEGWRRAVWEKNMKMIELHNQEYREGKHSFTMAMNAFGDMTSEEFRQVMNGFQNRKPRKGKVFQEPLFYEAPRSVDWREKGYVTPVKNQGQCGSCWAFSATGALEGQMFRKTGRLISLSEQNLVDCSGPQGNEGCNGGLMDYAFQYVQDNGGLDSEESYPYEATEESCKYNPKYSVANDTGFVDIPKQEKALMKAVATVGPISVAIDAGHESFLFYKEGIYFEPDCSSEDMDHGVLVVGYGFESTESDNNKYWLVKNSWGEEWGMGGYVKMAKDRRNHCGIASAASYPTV

Consider `CC(C)C(NC(=O)OC(C)(C)C)C(=O)N1CCCCN1C#N` (stereo unspecified), for which the results for the IC50 in test [1], in test [2] and in test [3] were 38 nM, 130 nM and 55 nM, respectively.
For the compound `CC(C)C(Nc1ccccc1)C(=O)N1CCCCN1C#N` (stereo unspecified), the IC50 in test [1] is 53 nM; in test [2], 625 nM; in test [3], 25 nM.
Turning to `CC(C)C(NC(=O)OCc1ccccc1)C(=O)N1CCCCN1C#N` (stereo unspecified), the results for the IC50 in test [1], in test [2] and in test [3] were 11 nM, 145 nM and 1 nM, respectively. Moreover, the Activity entry in test [4] and in test [5] was “Dose-dependent effect” in each case.
As to `CC(C)C(Nc1cccc(C(F)(F)F)c1)C(=O)N1CCCCN1C#N` (stereo unspecified), the half-maximal inhibitory concentration (IC50) was determined as 23 nM in test [1], 48 nM in test [2] and 23 nM in test [3].
As to `CC(C)C(Nc1ccc(Cl)cc1)C(=O)N1CCCCN1C#N` (stereo unspecified), the values for the IC50 in test [1], in test [2] and in test [3] were 110 nM, 610 nM and 24 nM, respectively.
On the same counts, the results for `CC(C)C(Nc1cccc(Cl)c1)C(=O)N1CCCCN1C#N` (stereo unspecified) are 32 nM, 240 nM and 11 nM.
In the case of `Cc1cccc(NC(C(=O)N2CCCCN2C#N)C(C)C)c1` (stereo unspecified), the IC50 in test [1] is 32 nM; in test [2], 355 nM; in test [3], 6 nM.
Turning to `CC(C)C(Nc1cccc(C#N)c1)C(=O)N1CCCCN1C#N` (stereo unspecified), the 50% inhibitory concentration (IC50) in test [1] is 40 nM; in test [2], 730 nM; in test [3] it was 4 nM.

What is called IC50 is the point on the concentration scale where inhibition reaches its midpoint.

(Values after ChEMBL document CHEMBL1155048, “Effect of novel N-cyano-tetrahydro-pyridazine compounds, a class of cathepsin K inhibitors, on the bone resorptive activity of mature osteoclasts” (Bioorg Med Chem Lett, 2008).)
